Laboratory results from BigSolDB 2.1.

Details: in water

## OCCc1ccccc1
333.15 K
  solubility (mole fraction): 0.0051
343.15 K
  solubility (mole fraction): 0.0055
353.15 K
  solubility (mole fraction): 0.0056
363.15 K
  solubility (mole fraction): 0.0065
373.15 K
  solubility (mole fraction): 0.0065

## O=Cc1ccccc1
353.15 K
  solubility (mole fraction): 0.00236
363.15 K
  solubility (mole fraction): 0.00261
373.15 K
  solubility (mole fraction): 0.0036

## O=Cc1ccco1
353.15 K
  solubility (mole fraction): 0.028
363.15 K
  solubility (mole fraction): 0.0314
373.15 K
  solubility (mole fraction): 0.034

## CCCCCC1CCC(=O)O1 (configuration not stated)
323.15 K
  solubility (mole fraction): 0.00072
333.15 K
  solubility (mole fraction): 0.00087
343.15 K
  solubility (mole fraction): 0.00099
353.15 K
  solubility (mole fraction): 0.00109
363.15 K
  solubility (mole fraction): 0.00118
373.15 K
  solubility (mole fraction): 0.00128
